{"source": "patent US20110280834A1", "about": "“METHODS AND COMPOSITIONS FOR CARDIAC TISSUE REGENERATION” (priority 2009, published 2011)", "origin": "cited, not measured here", "settings": "rat, in vivo, ip, 70 umol/kg", "data": [{"smiles": "O=c1[nH]c(=O)n([C@H]2C[C@H](O)[C@@H](CO)O2)cc1Br", "note": "[BrdU]", "values": [{"measurement": "half-life", "value": 2, "unit": "h"}]}]}
